Converted amounts (≈) assume the structure as drawn. Read-outs that look alike come from different tables or passages of the source.
Legend:
[1] = system: SW-480 human colon adenocarcinoma (ATCC CCL-228); test: Growth inhibition assay (MTT), SW-480; type: cell-based; settings: for IC50: SW480, 120 h, read-out: IC50 SW-480; for Activity in SW-480 compared with tubulysin D, in words: colon cancer cell line SW-480
[2] = system: KB-3-1 human cervix carcinoma (DSMZ ACC 158); test: Growth inhibition assay (MTT), KB-3-1; type: cell-based; settings: KB 3-1, 120 h, read-out: IC50 KB-3-1
[3] = system: L929 mouse fibroblasts (DSMZ ACC 2); test: Growth inhibition assay (MTT), L929; settings: for IC50: Mus musculus; for Cytotoxicity / activity in words: Tables 1 and 2, cell line not given
[4] = L929, 120 h, read-out: IC50 L929

CC[C@H](C)[C@H](NC(=O)[C@H]1CCCCN1C)C(=O)N(C)[C@H](C[C@@H](OC(C)=O)c1nc(C(=O)N[C@@H](Cc2ccccc2)C[C@H](C)C(=O)O)cs1)C(C)C (stereo in doubt) [Analogue 10, 4-({2-[1-Acetoxy-4-methyl-3-(methyl-{3-methyl-2-[(1-methylpiperidine-2-carbonyl)-amino]-pentanoyl}-amino)-pentyl]-thiazole-4-carbonyl}-amino)-2-methyl-5-phenyl-pentanoic acid]
IC50 ([1]; Homo sapiens): 0.016 ng/mL (≈ 0.022 nM) | Activity in SW-480 compared with tubulysin D, in words [1]: more active than tubulysin D | IC50 ([2]; Homo sapiens): 0.13 ng/mL (≈ 0.179 nM) | IC50 [3, 4]: 0.23 ng/mL (≈ 0.316 nM) | Fold less active than tubulysin D ([3]; cytotoxicity relative to tubulysin D): 4 fold

CC[C@H](C)[C@H](NC(=O)[C@H]1CCCCN1C)C(=O)N(C)[C@H](C[C@@H](OC(C)=O)c1nc(C(=O)NC)cs1)C(C)C (stereo in doubt) [Analogue 11, acetic acid 4-methyl-1-(4-methylcarbamoyl-thiazol-2-yl)-3-(methyl-{3-methyl-2-[(1-methyl-piperidine-2-carbonyl)-amino]-pentanoyl}-amino)-pentyl ester]
IC50 ([1]; Homo sapiens): 0.5 ng/mL (≈ 0.906 nM) | IC50 ([2]; Homo sapiens): 1.2 ng/mL (≈ 2.17 nM) | IC50 [3, 4]: 1.7 ng/mL (≈ 3.08 nM) | IC50 ([3]; L929, read-out: Cytotoxicity stated in text): 2 ng/mL (≈ 3.62 nM)

CC[C@H](C)[C@H](NC(=O)[C@H]1CCCCN1C)C(=O)N(COC(=O)CC(C)C)[C@H](C[C@@H](OC(C)=O)c1nc(C(=O)N[C@@H](Cc2ccccc2)C[C@H](C)C(=O)O)cs1)C(C)C [Analogue 1, Tubulysin D, reference compound]
IC50 ([1]; human colon adenocarcinoma, MTT after 5 days): 0.022 ng/mL (≈ 0.0266 nM) | IC50 ([2]; human cervix carcinoma, MTT after 5 days): 0.07 ng/mL (≈ 0.0845 nM) | IC50 [3, 4]: 0.056 ng/mL (≈ 0.0676 nM)

CC[C@H](C)[C@H](NC(=O)[C@H]1CCCCN1C)C(=O)N(COC(=O)CC(C)C)[C@H](C[C@@H](OC(C)=O)c1nc(C(=O)NCCc2ccccc2)cs1)C(C)C [Analogue 2, 3-methyl-butyric acid ({1-[2-acetoxy-2-(4-phenethylcarbamoylthiazol-2-yl)-ethyl]-2-methyl-propyl}-{3-methyl-2-[(1-methyl-piperidine-2-carbonyl)-amino]-pentanoyl}-amino)-methyl ester]
IC50 ([1]; Homo sapiens): 0.3 ng/mL (≈ 0.404 nM) | IC50 ([2]; Homo sapiens): 0.25 ng/mL (≈ 0.337 nM) | IC50 [3, 4]: 0.24 ng/mL (≈ 0.323 nM)

CC[C@H](C)[C@H](NC(=O)[C@H]1CCCCN1C)C(=O)N(COC(=O)CC(C)C)[C@H](C[C@@H](OC(C)=O)c1nc(C(=O)NCCCC(=O)O)cs1)C(C)C [Analogue 3, 3-Methyl-butyric acid ((1-{2-acetoxy-2-[4-(3-carboxy-propylcarbamoyl)-thiazol-2-yl]-ethyl)-2-methyl-propyl)-{3-methyl-2-[(1-methyl-piperidine-2-carbonyl)-amino]-pentanoyl}-amino)-methyl ester]
IC50 ([1]; Homo sapiens): 0.91 ng/mL (≈ 1.26 nM) | IC50 ([2]; Homo sapiens): 1.8 ng/mL (≈ 2.49 nM) | IC50 [3, 4]: 3.5 ng/mL (≈ 4.83 nM)

CC[C@H](C)[C@H](NC(=O)[C@H]1CCCCN1C)C(=O)N(COC(=O)CC(C)C)[C@H](C[C@@H](OC(C)=O)c1nc(C(=O)NC)cs1)C(C)C [Analogue 4, 3-methyl-butyric acid ({1-[2-acetoxy-2-(4-methylcarbamoyl-thiazol-2-yl) -ethyl]-2-methyl-propyl}-{3-methyl-2-[(1-methyl-piperidine-2-carbonyl)-amino]pentanoyl}-amino)-methyl ester]
IC50 ([1]; Homo sapiens): 0.35 ng/mL (≈ 0.537 nM) | IC50 ([2]; Homo sapiens): 0.22 ng/mL (≈ 0.337 nM) | IC50 [3, 4]: 0.3 ng/mL (≈ 0.46 nM) | Cytotoxicity / activity in words [3]: maintained good activity

CC[C@H](C)[C@H](NC(=O)[C@H]1CCCCN1C)C(=O)N(COC(=O)CC(C)C)[C@H](C[C@@H](OC(C)=O)c1nc(C(=O)O)cs1)C(C)C [Analogue 5, 2-[1-acetoxy-4-methyl-3-((3-methyl-butyryloxymethyl)-{3-methyl-2-[(1-methyl-piperidine-2-carbonyl)-amino]-pentanoyl}-amino)-pentyl]-thiazole-4-carboxylic acid]
IC50 ([1]; Homo sapiens): 0.35 ng/mL (≈ 0.548 nM) | IC50 ([2]; Homo sapiens): 1.5 ng/mL (≈ 2.35 nM) | IC50 [3, 4]: 2.2 ng/mL (≈ 3.44 nM) | Cytotoxicity / activity in words [3]: maintained good activity

CC[C@H](C)[C@H](NC(=O)CN(C)C)C(=O)N(COC(=O)CC(C)C)[C@H](C[C@@H](OC(C)=O)c1nc(C(=O)N[C@@H](Cc2ccccc2)C[C@H](C)C(=O)O)cs1)C(C)C [Analogue 6, 4-[(2-{1-acetoxy-3-[[2-(2-dimethylamino-cetylamino)-3-methylpentanoyl]-(3-methyl-butyryloxymethyl)-amino]-4-methyl-pentyl}-thiazole-4-carbonyl)-amino]-2-methyl-5-phenyl-pentanoic acid]
IC50 ([1]; Homo sapiens): 0.01 ng/mL (≈ 0.0127 nM) | Activity in SW-480 compared with tubulysin D, in words [1]: more active than tubulysin D | IC50 ([2]; Homo sapiens): 0.029 ng/mL (≈ 0.0368 nM) | IC50 [3, 4]: 0.04 ng/mL (≈ 0.0508 nM) | Cytotoxicity / activity in words [3]: essentially equipotent with tubulysin D

CC[C@H](C)[C@H](NC(C)=O)C(=O)N(COC(=O)CC(C)C)[C@H](C[C@@H](OC(C)=O)c1nc(C(=O)N[C@@H](Cc2ccccc2)C[C@H](C)C(=O)O)cs1)C(C)C [Analogue 7, 4-[(2-{1-acetoxy-3-[(2-acetylamino-3-methyl-pentanoyl)-(3-methyl-butyryloxymethyl)-amino]-4-methyl-pentyl}-thiazole-4-carbonyl)-amino]-2-methyl-5-phenyl-pentanoic acid]
IC50 ([1]; Homo sapiens): 15 ng/mL (≈ 20.1 nM) | IC50 ([2]; Homo sapiens): 80 ng/mL (≈ 107 nM) | IC50 [3, 4]: 120 ng/mL (≈ 161 nM) | Cytotoxicity / activity in words [3]: drastic decrease in activity

CC[C@H](C)[C@H](N=[N+]=[N-])C(=O)N(COC(=O)CC(C)C)[C@H](C[C@@H](OC(C)=O)c1nc(C(=O)N[C@@H](Cc2ccccc2)C[C@H](C)C(=O)O)cs1)C(C)C [Analogue 8, 4-[(2-{1-acetoxy-3-[(2-azido-3-metlzyl-pentanoyl)-(3-methylbutyryloxymethyl)-amino]-4-methyl-pentyl}-thiazole-4-carbonyl)-amino]-2-methyl-5-phenyl-pentanoic acid]
IC50 ([1]; Homo sapiens): 8.8 ng/mL (≈ 12.1 nM) | IC50 ([2]; Homo sapiens): 40 ng/mL (≈ 54.9 nM) | IC50 [3, 4]: 45 ng/mL (≈ 61.7 nM) | Cytotoxicity / activity in words [3]: drastic decrease in activity

From US20110263650A1 (priority 2007, published 2011)
